The values that follow come from patent US20200024347A1, “OR10H1 ANTIGEN BINDING PROTEINS AND USES THEREOF” (iOmx Therapeutics AG, priority 2016, published 2020).

Type in all cases: cell-based, human
One series relates to OR10H1. In words: Stable lentiviral shRNA knock-down of OR10H1 in M579-A2.
The subject of a further series is OR10H1 mRNA. In words: RT-PCR of OR10H1 mRNA after siRNA transfection. Conditions: M579-A2 cells, 72 h after transfection. As to the method: SMART pool siRNA against OR10H1 (GE Dharmacon) were tested (by RT-PCR) for their activity in downregulating OR10H1 mRNA in M579 (melanoma) cells. […] Details of the respective siRNAs are set out in Table E1.
In series [1] the test system is M579-A2-luc cells. In words: Luc-CTL cytotoxicity assay, TIL412-mediated killing of M579-A2-luc. From the text:
It was surprising to find that all siRNAs show an impact on TIL412-mediated killing of M579-A2-luc at 5:1 Effector to Target cell (E:T) ratio (FIG. 1B). Transfection of M579-A2-luc cells with OR10H1 siRNA 1 increased HLA-matched patient-derived tumor-infiltrating lymphocyte (TIL, clone 412)-mediated killing to 70% (30% remaining melanoma cells compared to a scrambled negative control siRNA; p=<0.0001). This increase in TIL-mediated lysis is stronger than for PD-L1 positive control knock-down (39% remaining cells).
(§1) The effects of siRNA knock-down on TIL-mediated killing and lysis in a chromium release assay were investigated as described in Khandelwal et al, 2015 (EMBO Mol Med 7:450-63). Tumor-infiltrating lymphocytes 412 and 209 microcultures were expanded from an inguinal lymph node of a melanoma patient as described in Dudley et al, 2010 (Clin Cancer Res 16:6122-31). M615, TIL615 and other patient-derived TIL cells were obtained analogously as described in Dudley et al, 2010. M579-A2-luc cells and M615-luc cells were produced from M579-A2 and M615, respectively (Machlenkin et al, 2008; Cancer Res 68:2006-13).

The test system of another series is M579-A2 cells. In words: Chromium release assay, lysis of M579-A2 by TIL209. As to conditions: TIL209, 12.5 E:T ratio, 4 h co-culture. As for the experimental part: TIL-mediated lysis of M579-A2 was validated in chromium release assay (4 h co-culture). […] Indeed, this effect of OR10H1 knock-down was stronger than the PD-L1 positive control knock-down (41% specific lysis at 12.5 E:T ratio; FIG. 1C).
as §1

For series [2], the system named is SW480 colorectal cancer cells. The series is described as follows: Chromium release assay, lysis of SW480 by HLA-matched TILs. Conditions: SW480, 50:1 E:T ratio, 4 h co-culture. As to the method: (§2) Furthermore, it was tested whether OR10H1 knock-down also has an effect in other cancers. […] SW480 (ATCC) and PANC-1 cells were analyzed for their expression of OR10H1 (see above) and the knock-down efficacy of the siRNAs were validated. The CRC cell line SW480 and the PANC-1 cell line were each co-cultured with corresponding HLA-matched TILs for chromium release (4 h co-culture). OR10H1 siRNA 1 almost tripled the lysis of SW480 by TILs in all effector to target ratios compared to the negative control siRNA (33% to 12.8% specific lysis at 50:1 E:T ratio; FIG. 1E). Indeed, knock-down of OR10H1 was almost as effective as knock-down of PD-L1 positive control on TIL-mediated lysis (FIG. 1E). Such effect was also surprising to see in pancreatic cancer cells: knock-down of OR10H1 (siRNA 1) doubled the lysis of PANC-1 by TILs in all effector to target ratios compared to the negative control siRNA (53% to 26% specific lysis at 50:1 E:T ratio; FIG. 1F).
(§3) The effects of siRNA knock-down on TIL-mediated killing and lysis in a chromium release assay were investigated as described in Khandelwal et al, 2015 (EMBO Mol Med 7:450-63). Tumor-infiltrating lymphocytes 412 and 209 microcultures were expanded from an inguinal lymph node of a melanoma patient as described in Dudley et al, 2010 (Clin Cancer Res 16:6122-31). […]

Series [3] concerns PANC-1 pancreatic adenocarcinoma cells. The series is described as follows: Chromium release assay, lysis of PANC-1 by HLA-matched TILs. As to conditions: PANC-1, 50:1 E:T ratio, 4 h co-culture. As to the method:
as §2, §3

The test system of the next series is TIL412. In words: Luminex cytokine secretion of TIL412 after co-culture with M579-A2. Conditions: 20 h co-culture.
The subject of series [4] is M579-A2-luc cells.

As for “OR10H1 shRNA 4: shRNA against OR10H1, TCTGCTGAAGGTCGGAACAAG, Sigma Aldrich TRCN0000357708, SEQ ID No. 31 (the letters are possibly those of the target site; listed as Homo sapiens)”, the “impact on OR10H1 expression and functionality” value in the series on OR10H1 was “strongest impact”.

Turning to “OR10H1 siRNA 1: siRNA against OR10H1, GGAGACACCUUGAUGGGCA, GE Dharmacon D-020479-01, SEQ ID No. 24 (listed as RNA, chemistry not given here; listed as Homo sapiens)”, the “knock-down of OR10H1 mRNA (RT-PCR)” value in the series on OR10H1 mRNA is on record as “complete absence”. Besides, in the series on M579-A2-luc cells [1] (TIL412, 5:1 E:T ratio), the TIL-mediated killing amounted to 70% and the “remaining melanoma cells compared to scrambled negative control siRNA” value amounted to 30%. Further, the specific lysis with M579-A2 cells amounted to 57%. In addition, the specific lysis in series [2] came out at 33%. Besides, the specific lysis in series [3] is 53%. In the series with TIL412, the “decrease of IL-6 secretion” value was 37%, the “decrease of MCP-1 secretion” value came out at 39%, the “increase of IFN-gamma secretion compared to negative control” value worked out at 8% and the “increase of IL-2 secretion” value is 58%. In the series with TIL412 (supernatant), this substance returned an IFN-gamma secretion of 3037 pg/mL, an IL-2 secretion of 1701 pg/mL, an IL-4 secretion of 11.8 pg/mL and an IL-6 secretion of 31 pg/mL. The substance also came in with an MCP-1 secretion in the series with TIL412 (supernatant) of 4035 pg/mL. In the series with TIL412 (trend), the “decrease of IL-4 secretion” value turned out to be 20%.

Regarding “OR10H1 siRNA 2: siRNA against OR10H1, AGUAAACUCUACCCAGAAA, GE Dharmacon D-020479-02, SEQ ID No. 25 (listed as RNA, chemistry not given here; listed as Homo sapiens)”, the “knock-down of OR10H1 mRNA (RT-PCR)” value with OR10H1 mRNA is recorded as “weaker but clear reduction”.

Regarding “OR10H1 siRNA 3: siRNA against OR10H1, GCAGAGAGCCAAUCACUCC, GE Dharmacon D-020479-03, SEQ ID No. 26 (listed as RNA, chemistry not given here; listed as Homo sapiens)”, the “knock-down of OR10H1 mRNA (RT-PCR)” value with OR10H1 mRNA was “strong reduction”. Also, in the series on M579-A2-luc cells [1] (without the presence of TILs), the “effect on M579-A2-luc viability” value is “shows an effect”.

For “OR10H1 siRNA 4: siRNA against OR10H1, GGUCGUGCACUAUGGCUUU, GE Dharmacon D-020479-04, SEQ ID No. 27 (listed as RNA, chemistry not given here; listed as Homo sapiens)”, the “knock-down of OR10H1 mRNA (RT-PCR)” value with OR10H1 mRNA is recorded as “weaker but clear reduction”.

For the substance cholera toxin, in the series with M579-A2-luc cells [4], the TIL-mediated lysis result is “around 30%”, the “effect on OR10H1 knockdown-mediated increase in TIL-mediated tumor lysis” value is listed as “abrogated”, the “effect on TIL-mediated tumor lysis in OR10H1 siRNA transfected (OR10H1-negative) M579-A2-luc” value is reported as “dramatically decreases” and the “effect on TIL-mediated tumor lysis in control siRNA transfected M579-A2-luc” value is given as “slight decrease”.

In the case of pertussis toxin, in the series with M579-A2-luc cells [4], the “effect on TIL-mediated tumor lysis in OR10H1 siRNA transfected (OR10H1-negative) M579-A2-luc” value is “not observed” and the “effect on TIL-mediated tumor lysis in control siRNA transfected M579-A2-luc” value is “slightly decreased”.
